#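 Compound exposure: 48 hours, 5 concentrations, 96-well plates. The concentration for 50% growth inhibition is given as GI50. TGI: concentration producing complete growth inhibition.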
# What was measured:
# Assay in all cases: growth of human tumour cells (NCI), 48 h
# [1] = system: HOP-92 NSCLC
# [2] = system: NCI-H460 lung
# [3] = system: HL-60(TB) leukemia
# [4] = system: SK-OV-3 ovarian
# [5] = system: HCC-2998 colon
# [6] = system: UACC-62 melanoma
# [7] = system: SF-295 CNS
# [8] = system: SR leukemia
# [9] = system: NCI-H226 lung
# [10] = system: MCF7 breast
# [11] = system: CCRF-CEM leukemia
# [12] = system: SK-MEL-2 melanoma
# [13] = system: RXF 393 renal
# [14] = system: LOX IMVI melanoma
# [15] = system: HCT-15 colon
# [16] = system: UACC-257 melanoma
# [17] = system: TK-10 renal
# [18] = system: COLO 205 colon
# [19] = system: ACHN renal
# [20] = system: HT29 colon
# [21] = system: EKVX NSCLC
# [22] = system: OVCAR-3 ovarian
# [23] = system: BT-549 breast
# [24] = system: OVCAR-8 ovarian
# [25] = system: MOLT-4 leukemia
# [26] = system: SF-539 CNS
# [27] = system: PC-3 prostate
# [28] = system: 786-0 renal
# [29] = system: U251 CNS
# [30] = system: CAKI-1 renal
# [31] = system: NCI-H522 lung
# [32] = system: OVCAR-5 ovarian
# [33] = system: OVCAR-4 ovarian
# [34] = system: HCT-116 colon
# [35] = system: MDA-MB-231 breast
# [36] = system: KM12 colon
# [37] = system: T-47D breast
# [38] = system: MDA-MB-435
# [39] = system: DU-145 prostate
# [40] = system: UO-31 renal
# [41] = system: A498 renal
# [42] = system: MALME-3M melanoma
# [43] = system: HOP-62 NSCLC
# [44] = system: SW-620 colon
# [45] = system: RPMI-8226 leukemia
# [46] = system: IGROV1 ovarian
# [47] = system: A549 NSCLC
# [48] = system: SN12C renal
# [49] = system: SK-MEL-5 melanoma
# [50] = system: M14 melanoma
# [51] = system: K-562 leukemia
# [52] = system: SNB-19 CNS
# [53] = system: HS 578T breast
# [54] = system: SNB-75 CNS
# [55] = system: SF-268 CNS
# [56] = system: SK-MEL-28 melanoma
# [57] = system: NCI/ADR-RES ovarian
structure (smiles),measurement,setting,value
CNC(=O)c1cc(-c2ccc(NC(=O)Nc3ccc(N4CCN(C)CC4)c(C(F)(F)F)c3)cc2)nc2cccnc12,GI50,[1],6.54 µM
same,TGI,[1],> 100 µM
same,GI50,[2],3.19 µM
same,TGI,[2],10.2 µM
same,GI50,[3],16.1 µM
same,TGI,[3],38.7 µM
same,GI50,[4],18.5 µM
same,TGI,[4],34.7 µM
same,GI50,[5],18 µM
same,TGI,[5],34.6 µM
same,GI50,[6],18.4 µM
same,TGI,[6],33.9 µM
same,GI50,[7],18 µM
same,TGI,[7],36.9 µM
same,GI50,[8],9.97 µM
same,TGI,[8],44.6 µM
same,GI50,[9],18 µM
same,TGI,[9],39.7 µM
same,GI50,[10],1670 nM
same,TGI,[10],3.45 µM
same,GI50,[11],3.16 µM
same,TGI,[11],74.2 µM
same,GI50,[12],> 100 µM
same,TGI,[12],> 100 µM
same,GI50,[13],3.38 µM
same,TGI,[13],15 µM
same,GI50,[14],656 nM
same,TGI,[14],24.5 µM
same,GI50,[15],2070 nM
same,TGI,[15],4.33 µM
same,GI50,[16],15.3 µM
same,TGI,[16],28.8 µM
same,GI50,[17],18.5 µM
same,TGI,[17],33.3 µM
same,GI50,[18],16.8 µM
same,TGI,[18],32.8 µM
same,GI50,[19],15.5 µM
same,TGI,[19],28.9 µM
same,GI50,[20],1920 nM
same,TGI,[20],4.19 µM
same,GI50,[21],17.9 µM
same,TGI,[21],33.9 µM
same,GI50,[22],9.59 µM
same,TGI,[22],25.8 µM
same,GI50,[23],16.5 µM
same,TGI,[23],35.3 µM
same,GI50,[24],17.4 µM
same,TGI,[24],35.4 µM
same,GI50,[25],2790 nM
same,TGI,[25],14.9 µM
same,GI50,[26],13.6 µM
same,TGI,[26],26.5 µM
same,GI50,[27],15.1 µM
same,TGI,[27],30.1 µM
same,GI50,[28],1810 nM
same,TGI,[28],3.52 µM
same,GI50,[29],3.43 µM
same,TGI,[29],14.7 µM
same,GI50,[30],16.1 µM
same,TGI,[30],29.6 µM
same,GI50,[31],16.5 µM
same,TGI,[31],31.1 µM
same,GI50,[32],15.6 µM
same,TGI,[32],29 µM
same,GI50,[33],15.7 µM
same,TGI,[33],31.6 µM
same,GI50,[34],4.09 µM
same,TGI,[34],75.6 µM
same,GI50,[35],17.5 µM
same,TGI,[35],38.1 µM
same,GI50,[36],17.4 µM
same,TGI,[36],43.3 µM
same,GI50,[37],17 µM
same,TGI,[37],43.4 µM
same,GI50,[38],1750 nM
same,TGI,[38],3.27 µM
same,GI50,[39],17.6 µM
same,TGI,[39],35.6 µM
same,GI50,[40],15.3 µM
same,TGI,[40],29.2 µM
same,GI50,[41],> 100 µM
same,TGI,[41],> 100 µM
same,GI50,[42],1680 nM
same,TGI,[42],3.21 µM
same,GI50,[43],16.4 µM
same,TGI,[43],32.2 µM
same,GI50,[44],2110 nM
same,TGI,[44],4.62 µM
same,GI50,[45],3.85 µM
same,TGI,[45],25 µM
same,GI50,[46],17.7 µM
same,TGI,[46],36.6 µM
same,GI50,[47],10.9 µM
same,TGI,[47],24.3 µM
same,GI50,[48],16.7 µM
same,TGI,[48],34.7 µM
same,GI50,[49],17.5 µM
same,TGI,[49],31.7 µM
same,GI50,[50],1790 nM
same,TGI,[50],3.71 µM
same,GI50,[51],2120 nM
same,TGI,[51],5.35 µM
same,GI50,[52],16.9 µM
same,TGI,[52],33.2 µM
same,GI50,[53],15 µM
same,TGI,[53],38.9 µM
same,GI50,[54],14.9 µM
same,TGI,[54],28.4 µM
same,GI50,[55],17.5 µM
same,TGI,[55],39.2 µM
same,GI50,[56],1670 nM
same,TGI,[56],3.11 µM
same,GI50,[57],14.2 µM
same,TGI,[57],45.4 µM
